US12053476B2, “Compounds, compositions and methods for cancer patient stratification and cancer treatment” (BAYER PHARMA AKTIENGESELLSCHAFT, priority 2016, dated 2024)

Legend:
[1] = In vitro metabolic stability in cryopreserved human hepatocytes; format: in vitro ADME; conditions: 1 μM test compound
Description: Investigation of In Vitro Metabolic Stability in Cryopreserved Human Hepatocytes (Including Calculation of Hepatic In Vivo Blood Clearance (CL) and Maximal Oral Bioavailability (Fmax))
Cryopreserved Hepatocytes (e.g. purchased from Celsis InVitroTechnologies) were briefly thawed, washed with 45 mL pre-warmed in in vitro GRO HT medium and centrifuged for 5 min at 50×g. The cell pellet was resuspended in 5 ml of Krebs-Henseleit […] (KHB). Cell viability was determined by trypan blue exclusion.
For the metabolic stability assay liver cells were distributed in WME containing 5% FCS to glass vials at a density of 1.0×10^6 vital cells/ml. The test compound was added to a final concentration of 1 μM. During incubation, the hepatocyte suspensions were continuously shaken at 580 rpm and aliquots were taken at 2, 8, 16, 30, 45 and 90 min, to which equal volumes of cold methanol were immediately added. Samples were frozen at −20° C. over night, after subsequently centrifuged for 15 minutes at 3000 rpm and the supernatant was analyzed with an Agilent 1290 HPLC-system with LCMS/MS detection.
The half-life of a test compound was determined from the concentration-time plot. From the half-life the intrinsic clearances were calculated. […] The hepatic in vivo blood clearance (CL) and the maximal oral bioavailability (Fmax) was calculated.

PDE3A(677-1141) = target: T1, PDE3A(677-1141) (Homo sapiens, UniProt Q14432); test: Differential scanning fluorimetry (DSF) binding to purified PDE3A catalytic domain; conditions: 5 μM PDE3A, 100 μM compound
T1 construct: purified PDE3A catalytic domain, PDE3A(677-1141)
T1 sequence (Q14432 677-1141): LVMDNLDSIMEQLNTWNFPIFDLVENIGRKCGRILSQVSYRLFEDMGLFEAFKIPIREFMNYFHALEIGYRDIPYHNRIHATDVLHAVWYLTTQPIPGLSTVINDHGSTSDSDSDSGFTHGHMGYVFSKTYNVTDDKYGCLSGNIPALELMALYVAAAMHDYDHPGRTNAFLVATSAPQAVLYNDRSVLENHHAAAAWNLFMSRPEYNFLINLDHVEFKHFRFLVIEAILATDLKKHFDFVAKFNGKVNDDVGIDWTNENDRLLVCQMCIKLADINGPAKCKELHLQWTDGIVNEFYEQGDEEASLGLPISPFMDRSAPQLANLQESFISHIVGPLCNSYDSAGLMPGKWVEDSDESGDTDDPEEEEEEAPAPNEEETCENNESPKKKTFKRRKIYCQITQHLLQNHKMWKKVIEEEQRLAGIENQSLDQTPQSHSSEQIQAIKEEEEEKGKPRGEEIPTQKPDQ
Description: Binding buffer: 20 mM Hepes pH 7.4, 100 μM TCEP, 1 mM MgCl2, 150 mM NaCl.

PDE3A = target: T2, PDE3A (Homo sapiens, UniProt Q14432); test: Linker-affinity purification of molecular target of DNMDP and immunoblotting (competition); format: binding; conditions: HeLa cell lysate, 10 μM compound
T2 construct: endogenous in cells; host or cells: HeLa
T2 sequence (Q14432 whole entry): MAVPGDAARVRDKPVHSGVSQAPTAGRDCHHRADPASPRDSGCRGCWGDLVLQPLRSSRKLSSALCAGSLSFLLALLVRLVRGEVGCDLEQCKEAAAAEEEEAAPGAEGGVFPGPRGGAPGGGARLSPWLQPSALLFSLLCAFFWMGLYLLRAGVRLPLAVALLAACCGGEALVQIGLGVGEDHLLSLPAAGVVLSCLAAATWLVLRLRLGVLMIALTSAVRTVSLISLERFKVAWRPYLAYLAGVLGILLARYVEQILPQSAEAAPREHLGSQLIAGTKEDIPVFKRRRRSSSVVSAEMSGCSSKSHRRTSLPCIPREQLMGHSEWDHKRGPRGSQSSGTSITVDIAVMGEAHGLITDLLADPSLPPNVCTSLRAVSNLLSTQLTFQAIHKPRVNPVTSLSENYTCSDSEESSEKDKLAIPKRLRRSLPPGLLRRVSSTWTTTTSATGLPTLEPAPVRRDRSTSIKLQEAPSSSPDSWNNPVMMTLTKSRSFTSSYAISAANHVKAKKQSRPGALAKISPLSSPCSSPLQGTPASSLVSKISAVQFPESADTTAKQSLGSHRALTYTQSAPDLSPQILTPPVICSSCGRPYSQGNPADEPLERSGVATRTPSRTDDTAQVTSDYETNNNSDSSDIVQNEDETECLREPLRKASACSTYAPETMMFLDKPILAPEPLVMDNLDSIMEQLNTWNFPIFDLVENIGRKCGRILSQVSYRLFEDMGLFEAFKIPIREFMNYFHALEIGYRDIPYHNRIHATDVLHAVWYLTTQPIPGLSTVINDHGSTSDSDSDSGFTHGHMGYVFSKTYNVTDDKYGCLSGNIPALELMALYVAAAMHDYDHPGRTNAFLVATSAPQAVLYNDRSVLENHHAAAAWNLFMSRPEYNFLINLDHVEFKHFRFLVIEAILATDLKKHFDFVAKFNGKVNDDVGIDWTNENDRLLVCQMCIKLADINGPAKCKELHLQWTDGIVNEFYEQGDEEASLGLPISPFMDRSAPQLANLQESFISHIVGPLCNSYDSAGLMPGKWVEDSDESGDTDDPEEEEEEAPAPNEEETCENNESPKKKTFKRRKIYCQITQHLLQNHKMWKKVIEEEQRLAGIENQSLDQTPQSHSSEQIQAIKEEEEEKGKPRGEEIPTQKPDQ
Description: To identify the molecular target of DNMDP, an affinity purification was performed using an (R)-des-nitro-DNMDP solid-phase tethered linker analogue (FIG. 10A) incubated with HeLa cell lysate. […] It was competed for the molecular target by adding either an excess of trequinsin or separate enantiomers of DNMDP, where only the (R)-enantiomer was cytotoxic. […] Binding of PDE3A to the linker analogue was blocked by both trequinsin and (R)-DNMDP, but not by the non-cytotoxic enantiomer (S)-DNMDP (FIG. 9C). Thus both trequinsin and (R)-DNMDP prevented the binding of PDE3A to the tethered DNMDP analogue, and it was concluded that both molecules bind PDE3A directly.
HeLa cells were washed with ice-cold PBS before lysed with NP-40 lysis buffer (150 mM NaCl, 10% glycerol, 50 mM Tris-Cl pH 8.0, 50 mM MgCl2, 1% NP-40) supplemented with EDTA-free protease inhibitors (Roche) and phosphatase inhibitor mixtures I and II (Calbiochem). Cell lysates were incubated on ice for at least 2 minutes and subsequently centrifuged for 10 minutes at 4° C. at 15,700×g after which the supernatant was quantified using BCA protein assay kit (Pierce). […] total HeLa cell lysate was incubated with 3 μl Affi-Gel 102 resin (BioRad) coupled to affinity linker DNMDP-2L in a total volume of 400 μl for four hours. Prior to incubation, indicated compounds were added to affinity purifications at a final concentration of 10 μM. Samples were washed three times with lysis buffer containing corresponding compound concentrations of 10 μM. Proteins bound to Affi-Gel 102 resin were reduced, denatured, and separated using Tris-Glycine gels (Novex) and transferred to nitrocellulose membranes using the iBlot transfer system (Novex). Membranes were incubated overnight at 4° C. with primary antibodies against PDE3A (1:1000, Bethyl). Incubation with secondary antibodies (1:20,000, LI-COR Biosciences) for two hours at room temperature and subsequent detection (Odyssey Imaging System, LI-COR Biosciences) were performed according to manufacturer's recommendations.

HeLa cells [2] = test: Compound sensitivity testing in cell lines (cell viability, 48 h); format: cell-based, human
Description: 1500 NCI-H1734 or 1000 A549 cells were plated in a 384-well plate in 40 μl of RPMI supplemented with 10% Fetal Bovine Serum and 1% Pen/Strep. 24 hours after plating, a compound-library of 1924 small molecules was added at a concentration of 10 μM. Staurosporine was used a positive control for cytotoxicity at a concentration of 10 μM, and DMSO was used a negative control at a concentration of 1%. All compounds were incubated for 48 hours with indicated small molecules. After 48 hours, 384-well plates were removed from the incubator and allowed to cool to room temperature for 20 minutes. Cell viability was assessed by adding 40 μl of a 25% CELLTITERGLO® (Promega) in PBS with a THERMO COMBI™ or multichannel-pipette and incubated for 10 minutes. The luminescence signal was read using a Perkin-Elmer EnVision. Viability percentage was calculated by normalizing to DMSO controls.
1000 HeLa (DMEM), 1000 A549 (RPMI), 500 MCF-7 (DMEM), 4000 PC3 (F12-K), 1000 NCI-H2122 (RPMI) or 1500 NCI-H1563 (RPMI) cells were plated in a 384-well plate in 40 μl of corresponding growth media supplemented with 10% Fetal Bovine Serum. 24 hours after plating, indicated compounds were added at indicated concentrations and incubated for 48 hours. Cell viability was assessed as described in Compound library screening in NCI-H1734 and A549 cell lines.

HeLa cells [3] = test: Follow-up dose-dependent rescue of DNMDP cytotoxicity (competition with DNMDP); format: cell-based, human; conditions: co-treatment with DNMDP, 48 h; for rescue of DNMDP cytotoxicity / competition (in words): up to 10 μM
HeLa cells [4] = test: Bioactives screen to rescue DNMDP induced cytotoxicity; format: cell-based, human; conditions: 20 μM bioactive + 30 nM DNMDP, 48 h
Text: Most importantly, PDE4 competitive inhibitors and PDE4 allosteric modulators with similar IC50s for cAMP hydrolysis in vitro had different cellular activities and safety profiles in animal studies (Burgin et al., Nat Biotechnol 28, 63-70, 2010). To evaluate whether PDE inhibitors or other small molecules compete with DNMDP, the PHARMAKON 1600 collection of 1600 bioactive compounds (PHARMAKON 1600 is a unique collection of 1600 known drugs from US and International Pharmacopeia) was screened to identify compounds that were able to rescue cell death induced by DNMDP. HeLa cells were co-treated with 30 nM DNMDP (the EC70 concentration) and 20 μM of each bioactive compound. Cell viability after 48-hour treatment was assessed by ATP […] as described earlier.
Bioactives Screen to Rescue DNMDP Induced Cytotoxicity 1000 HeLa cells were plated in a 384-well plate in 40 μl of DMEM supplemented with 10% Fetal Bovine Serum and 1% Pen/Strep. 24 hours after plating, a compound-library of 1600 bioactive molecules (Pharmacon) was added at a concentration of 20 μM. In parallel to bioactive compound incubation, DNMDP was added to a final concentration of 30 nM and incubated for 48 hours. Cell viability was assessed as described in Compound library screening in NCI-H1734 and A549 cell lines. Linker-Affinity Purification of Molecular Target of DNMDP and Immunoblotting

Compound	Tm (PDE3A(677-1141)) [°C]	blocking of PDE3A binding to the tethered linker analogue (PDE3A)	rescue of DNMDP cytotoxicity / competition (in words) (HeLa cells [3])	other results
CN(C(=O)CCCOc1ccc2[nH]c(=O)ccc2c1)C1CCCCC1 [cilostamide, N-cyclohexyl-N-methyl-4-[(2-oxo-1H-quinolin-6-yl)oxy]butanamide]			able to rescue DNMDP cytotoxicity in a dose-dependent manner	
O=C1CCc2cc(OCCCCc3nnnn3C3CCCCC3)ccc2N1 [cilostazol, 6-[4-(1-cyclohexyl-1H-tetrazol-5-yl)butoxy]-3,4-dihydro-2(1H)-quinolinone]				rescue of cell death induced by DNMDP (rank in screen) (HeLa cells [4]): three most potent compounds
CC(C)C(=O)c1c(C(C)C)nn2ccccc12 [idubulast]			not effective competitors	
Cc1[nH]c(=O)c(C#N)cc1-c1ccncc1 [milrinone, 2-methyl-6-oxo-1,6-dihydro-3,4′-bipyridine-5-carbonitrile]			able to rescue DNMDP cytotoxicity in a dose-dependent manner	rescue of cell death induced by DNMDP (rank in screen) (HeLa cells [4]): three most potent compounds
CCCc1nn(C)c2c(=O)[nH]c(-c3cc(S(=O)(=O)N4CCN(C)CC4)ccc3OCC)nc12 [sildenafil, 1-[4-ethoxy-3-(6,7-dihydro-1-methyl-7-oxo-3-propyl-1H-pyrazolo[4,3-d]pyrimidin-5-yl)phenylsulfonyl]-4-methylpiperazine]			not effective competitors	

More lines, main results first:

Tm (PDE3A(677-1141)) [°C]	blocking of PDE3A binding to the tethered linker analogue (PDE3A)	Compound	rescue of DNMDP cytotoxicity / competition (in words) (HeLa cells [3])	other results
59.0 ± 0.0		C[C@@H]1CC(=O)NN=C1c1ccc(N2CCOCC2)c(F)c1 (single isomer, unassigned) [Compound 3]		mean metabolic stability (Fmax) [1]: 49%; ΔTm at 100 µM (PDE3A(677-1141)): 6.6 °C
	blocked	CCN(CC)c1ccc(C2=NNC(=O)C[C@H]2C)cc1[N+](=O)[O-] [(R)-DNMDP, (R)-6-(4-(diethylamino)-3-nitrophenyl)-5-methyl-4,5-dihydropyridazin-3(2H)-one]		
	not	CCN(CC)c1ccc(C2=NNC(=O)C[C@@H]2C)cc1[N+](=O)[O-] [(S)-DNMDP]		
56.6 ± 0.0		O=C1CN2Cc3c(ccc(Cl)c3Cl)N=C2N1 [Anagrelide, 6,7-dichloro-1,5-dihydroimidazo (2,1-b)quinazolin-2(3H)-one, reference compound]		
66.2 ± 0.0	blocked	COc1cc2c(cc1OC)-c1c/c(=N\c3c(C)cc(C)cc3C)n(C)c(=O)n1CC2 [Trequinsin, 9,10-dimethoxy-3-methyl-2-(2,4,6-trimethylphenyl)imino-6,7-dihydropyrimido[6,1-a]isoquinolin-4-one, reference compound]		effect on HeLa cell viability (in words) (HeLa cells [2]): did not affect HeLa cell viability in any detectable way; EC50 (HeLa cells [3]; Homo sapiens, read-out: RC50 (the concentration at which it achieved 50% rescue)): < 1 nM
